Test results published in patent publication US8211929B2, “Pyrimidine derivatives as kinase modulators and method of use” (Exelixis, Inc., priority 2004, dated 2012).
Like-named read-outs stand apart in the source and are kept apart here.

Assays:
[1] = target: T1, (Homo sapiens, UniProt P08069); experiment: IGF1R kinase assay (LCCA), IGF 0P; assay type: biochemical
T1 construct: human IGF1R kinase domain residues M954-C1367; made in house; host or cells: baculovirus expression (insect cells)
Method in brief: (§1)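 Read-out is percent ATP remaining, detected by luciferase-luciferin luminescence after a 2 h ambient reaction. Reaction contained 4 nM IGF1R kinase domain (residues M954-C1367, baculovirus-made), 3 μM ATP (near KM), 4 μM poly EY, pH 7.5 with Mg2+/Mn2+. Ten inhibitor concentrations; IC50 by Hill-type curve fit.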

IGF 3P = target: T2, IGF 3P (Homo sapiens, UniProt P08069); experiment: IGF1R kinase assay (LCCA), IGF 3P; assay type: biochemical
T2 construct: human IGF1R kinase domain residues M954-C1367; made in house; host or cells: baculovirus expression (insect cells)
T2 sequence (P08069 954-1367): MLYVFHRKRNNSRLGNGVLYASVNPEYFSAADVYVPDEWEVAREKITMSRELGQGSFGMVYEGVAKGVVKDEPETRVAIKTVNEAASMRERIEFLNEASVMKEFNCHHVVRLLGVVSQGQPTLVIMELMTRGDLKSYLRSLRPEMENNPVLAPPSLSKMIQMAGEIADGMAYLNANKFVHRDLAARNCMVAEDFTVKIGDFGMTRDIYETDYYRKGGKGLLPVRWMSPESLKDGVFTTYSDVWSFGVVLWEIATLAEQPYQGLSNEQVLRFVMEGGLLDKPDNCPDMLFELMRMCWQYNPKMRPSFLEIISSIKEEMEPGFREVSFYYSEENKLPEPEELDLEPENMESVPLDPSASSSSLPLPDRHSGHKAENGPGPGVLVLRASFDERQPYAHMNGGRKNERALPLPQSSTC
Method in brief: as §1

T1 sequence (P08069 954-1367): as above

SMILES	IC50 ([1]; IGF1R kinase LCCA assay) [nM]	IC50 (IGF 3P; IGF1R kinase LCCA assay) [nM]	other results
Cc1cc(Nc2cc(N3CCN(C)CC3)nc(NCc3cc(-c4ccccc4)no3)n2)[nH]n1 [Example 618, 6-(4-methylpiperazin-1-yl)-N^4-(3-methyl-1H-pyrazol-5-yl)-N^2-[(3-phenylisoxazol-5-yl)methyl]pyrimidine-2,4-diamine]	–	–	IC50 [1]: 50 to 500 nM; IC50 (IGF 3P): < 50 nM
CC(C)c1cc(Nc2cc(OCCN3CCOCC3)nc(NCc3cc(-c4ccccc4)no3)n2)n[nH]1 [Example 588, N^4-[5-(1-methylethyl)-1H-pyrazol-3-yl]-6-[(2-morpholin-4-ylethyl)oxy]-N^2-[(3-phenylisoxazol-5-yl)methyl]pyrimidine-2,4-diamine]	–	–	IC50 [1]: 50 to 500 nM; IC50 (IGF 3P): < 50 nM
c1ccc(-c2cc(CNc3nc(NCCN4CCCCC4)cc(Nc4cc(C5CC5)[nH]n4)n3)on2)cc1 [Example 516]	50 to 500	< 50	–
Fc1ccc(-c2cc(CNc3nc(Nc4cc(C5CC5)n[nH]4)cc(N4CCOCC4)n3)on2)cc1 [Example 604, N^4-(3-cyclopropyl-1H-pyrazol-5-yl)-N^2-{[3-(4-fluorophenyl)isoxazol-5-yl]methyl}-6-morpholin-4-ylpyrimidine-2,4-diamine]	–	–	IC50 [1]: 50 to 500 nM; IC50 (IGF 3P): < 50 nM
Brc1cnc(Nc2ccc3[nH]ccc3c2)nc1Nc1cc(C2CC2)n[nH]1 [Example 132]	50 to 500	50 to 500	–
CC(C)c1cc(CNc2nc(Nc3cc(C4CC4)[nH]n3)cc(N3CCN[C@H](C)C3)n2)on1 [Example 557]	–	–	IC50 ([1]; IGF1R kinase LCCA assay, IGF 0P): 50 to 500 nM; IC50 (IGF 3P; IGF1R kinase LCCA assay, IGF 3P): < 50 nM
Brc1cnc(Nc2cccc(Oc3ccccc3)c2)nc1Nc1cc(C2CC2)n[nH]1 [Example 330]	> 5000	> 5000	–
COC(=O)C1CCc2cc(Nc3nc(C)cc(Nc4cc(C5CC5)n[nH]4)n3)ccc2N1 (stereo not shown) [Example 537]	500 to 5000	500 to 5000	–
CC(C)c1cc(Nc2cc(OCCN(C)C)nc(NCc3cc(-c4ccccc4)no3)n2)n[nH]1 [Example 518]	50 to 500	< 50	–
Cc1cc(Nc2cc(C3CC3)[nH]n2)nc(OCc2cc(-c3ccccc3)no2)n1 [Example 584, N-(5-cyclopropyl-1H-pyrazol-3-yl)-6-methyl-2-{[(3-phenylisoxazol-5-yl)methyl]oxy}pyrimidin-4-amine]	–	–	IC50 [1]: 50 to 500 nM; IC50 (IGF 3P): 500 to 5000 nM
CN(c1ccccc1)c1ncc(Br)c(Nc2cc(C3CC3)[nH]n2)n1 [Example 223]	50 to 500	500 to 5000	–
Cc1cc(Nc2cc(C3CC3)n[nH]2)nc(Nc2cc(Br)cc(C(F)(F)F)c2)n1 [Example 301]	> 5000	> 5000	–
CC(C)(C)OC(=O)N1CCC(CNc2ncc(Br)c(Nc3cc(C4CC4)n[nH]3)n2)CC1 [Example 315]	> 5000	> 5000	–
COc1cc(Nc2ncc(Br)c(Nc3cc(C4CC4)n[nH]3)n2)cc(C(F)(F)F)c1 [Example 258]	> 5000	> 5000	–
CC(C)(C)OC(=O)N1CCC(Nc2ncc(Br)c(Nc3cc(C4CC4)[nH]n3)n2)CC1 [Example 326]	> 5000	> 5000	–
CCN(CC)CCCNc1cc(Nc2cc(C3CC3)n[nH]2)nc(Nc2ccccc2Cl)n1 [Example 182]	500 to 5000	500 to 5000	–
Cc1cc(Nc2cc(C3CC3)[nH]n2)nc(NCc2cc(-c3ccc(F)cc3)no2)n1 [Example 500]	50 to 500	< 50	–
CN1CCN(c2cc(Nc3cc(C4CC4)n[nH]3)nc(NCc3cc(-c4cncnc4)no3)n2)CC1 [Example 642, N^4-(3-cyclopropyl-1H-pyrazol-5-yl)-6-(4-methylpiperazin-1-yl)-N^2-[(3-pyrimidin-5-ylisoxazol-5-yl)methyl]pyrimidine-2,4-diamine]	–	–	IC50 [1]: 50 to 500 nM; IC50 (IGF 3P): < 50 nM
Cc1cc(Nc2cc(C3CC3)n[nH]2)nc(Nc2ccc(CCN)cc2)n1 [Example 550]	500 to 5000	50 to 500	–
Brc1cnc(NCc2cc(-c3ccccc3)no2)nc1Nc1cc(C2CC2)[nH]n1 [Example 14]	50 to 500	50 to 500	–
COc1cc(Nc2nc(C)cc(Nc3cc(C4CC4)n[nH]3)n2)cc(C(F)(F)F)c1 [Example 302]	> 5000	> 5000	–
O=C(NCCN1CCCCC1)c1cc(Nc2cc(C3CC3)[nH]n2)nc(NCc2cc(-c3ccccc3)no2)n1 [Example 531]	50 to 500	< 50	–

SMILES	IC50 ([1]; IGF1R kinase LCCA assay) [nM]	IC50 (IGF 3P; IGF1R kinase LCCA assay) [nM]	other results
Cc1cc(Nc2cc(N3CCOCC3)nc(NCc3cc(C)no3)n2)[nH]n1 [Example 627, N^2-[(3-methylisoxazol-5-yl)methyl]-N^4-(3-methyl-1H-pyrazol-5-yl)-6-morpholin-4-ylpyrimidine-2,4-diamine]	–	–	IC50 [1]: 500 to 5000 nM; IC50 (IGF 3P): 50 to 500 nM
CC(C)c1cc(CNc2nc(Cl)cc(Nc3cc(C(C)C)[nH]n3)n2)on1 [Example 544]	500 to 5000	< 50	–
Cc1ccc(CNc2ncc(Br)c(Nc3cc(C4CC4)n[nH]3)n2)o1 [Example 142]	500 to 5000	50 to 500	–
Brc1cnc(Nc2ccccc2N2CCOCC2)nc1Nc1cc(C2CC2)n[nH]1 [Example 260]	> 5000	> 5000	–
Brc1cnc(Nc2cc(C3CC3)n[nH]2)nc1Nc1cc(C2CC2)n[nH]1 [Example 133]	500 to 5000	50 to 500	–
Cc1cc(Nc2cc(C3CC3)n[nH]2)nc(Nc2ccc(C3CCNCC3)cc2)n1 [Example 553]	500 to 5000	500 to 5000	–
CC(C)CNc1ncc(Br)c(Nc2cc(C3CC3)[nH]n2)n1 [Example 118]	500 to 5000	50 to 500	–
Cc1cc(Nc2nc(NCc3cc(-c4ccccc4)no3)ncc2Br)[nH]n1 [Example 19]	500 to 5000	500 to 5000	–
CN1CCN(c2cc(Nc3cc(C4CC4)n[nH]3)nc(NCc3cc(-c4ccnc(N)n4)no3)n2)CC1 [Example 660, N^2-{[3-(2-aminopyrimidin-4-yl)isoxazol-5-yl]methyl}-N^4-(3-cyclopropyl-1H-pyrazol-5-yl)-6-(4-methylpiperazin-1-yl)pyrimidine-2,4-diamine]	–	–	IC50 [1]: 50 to 500 nM; IC50 (IGF 3P): 50 to 500 nM
CC(C)c1cc(Nc2cc(OCCN3CCOCC3)nc(NCc3cc(-c4ccc(F)cc4)no3)n2)[nH]n1 [Example 609]	–	–	IC50 [1]: 50 to 500 nM; IC50 (IGF 3P): < 50 nM
Cc1cc(Nc2cc(C3CC3)[nH]n2)nc(NCc2cnc[nH]2)n1 [Example 536]	500 to 5000	500 to 5000	–
CN1CCN(c2cc(Nc3cc(C4CC4)[nH]n3)nc(NCc3cc(-c4nccs4)no3)n2)CC1 [Example 648, N^4-(5-cyclopropyl-1H-pyrazol-3-yl)-6-(4-methylpiperazin-1-yl)-N^2-{[3-(1,3-thiazol-2-yl)isoxazol-5-yl]methyl}pyrimidine-2,4-diamine]	–	–	IC50 [1]: 50 to 500 nM; IC50 (IGF 3P): < 50 nM
Clc1ccc(-c2cc(CNc3ncc(Br)c(Nc4cc(C5CC5)[nH]n4)n3)on2)cc1 [Example 275]	500 to 5000	> 5000	–
Cc1cc(Nc2cc(C3CC3)[nH]n2)nc(NCc2cc(C(=O)N3CCN(C)CC3)no2)n1 [Example 555]	500 to 5000	500 to 5000	–
Cc1cc(Nc2cc(C3CC3)[nH]n2)nc(NCc2cc(-c3ccncc3)no2)n1 [Example 620, N^4-(5-cyclopropyl-1H-pyrazol-3-yl)-6-methyl-N^2-[(3-pyridin-4-ylisoxazol-5-yl)methyl]pyrimidine-2,4-diamine]	–	–	IC50 [1]: 50 to 500 nM; IC50 (IGF 3P): 50 to 500 nM
CC(C)(C)OC(=O)NCc1ccc(Nc2ncc(Br)c(Nc3cc(C4CC4)[nH]n3)n2)cc1 [Example 92]	50 to 500	50 to 500	–
Brc1cnc(Nc2ccc3c(c2)OCCO3)nc1Nc1cc(C2CC2)n[nH]1 [Example 104]	50 to 500	50 to 500	–
COc1cc(CNc2ncc(Br)c(Nc3cc(C4CC4)[nH]n3)n2)cc(OC)c1 [Example 187]	500 to 5000	500 to 5000	–
Brc1ccccc1Nc1ncc(Br)c(Nc2cc(C3CC3)n[nH]2)n1 [Example 83]	50 to 500	50 to 500	–
Cc1cc(Nc2cc(OCCN3CCOCC3)nc(NCc3cc(-c4ccccc4)no3)n2)[nH]n1 [Example 619, N^4-(3-methyl-1H-pyrazol-5-yl)-6-[(2-morpholin-4-ylethyl)oxy]-N^2-[(3-phenylisoxazol-5-yl)methy]pyrimidine-2,4-diamine]	–	–	IC50 [1]: 50 to 500 nM; IC50 (IGF 3P): 50 to 500 nM
CC(C)c1cc(CNc2nc(Nc3cc(C(C)C)[nH]n3)cc(OCCN3CCOCC3)n2)on1 [Example 587, N-{[3-(1-methylethyl)isoxazol-5-yl]methyl}-N^4-[5-(1-methylethyl)-1H-pyrazol-3-yl]-6-[(2-morpholin-4-ylethyl)oxy]pyrimidine-2,4-diamine]	–	–	IC50 [1]: 500 to 5000 nM; IC50 (IGF 3P): < 50 nM
Nc1ncnc2c1c(-c1ccc(NC(=O)C3(C(=O)Nc4ccc(F)cc4)CC3)cc1)cn2C1CC(CN2CCCC2)C1 (stereo not shown) [Example 343]	500 to 5000	500 to 5000	–
